The target of experiment [1] is T1, Glycogen synthase kinase-3 beta (Homo sapiens, UniProt P49841). In words: (§1) Inhibition of human recombinant GSK-3beta using GS2 peptide as substrate and [gamma33P]-ATP after 30 mins by scintillation counting.
Experiment [2] has as its target T1, Glycogen synthase kinase-3 beta. The description is as §1. This is another data set of the same source.
The target in experiment [3] is T2, Cyclin-dependent kinase 5 (Homo sapiens, UniProt Q00535). In words: (§2) Inhibition of human recombinant CDK5 using histone H1 as substrate and [gamma33P]-ATP after 20 mins by scintillation counting.
For experiment [4], the target named is T2, Cyclin-dependent kinase 5. The description is as §2. The source holds these as a separate data set.
The target of experiment [5] is T3, Glycogen synthase kinase-3 alpha (Homo sapiens, UniProt P49840). In words: (§3) Inhibition of human recombinant GSK-3alpha using GS2 peptide as substrate and [gamma33P]-ATP after 12 mins by scintillation counting.
The target of experiment [6] is T3, Glycogen synthase kinase-3 alpha. The experiment is described as §3. The source holds these as a separate data set.
The target in experiment [7] is T4, Cyclin-dependent kinase 1 (Homo sapiens, UniProt P06493). In words: (§4) Inhibition of human recombinant CDK1 using histone H1 as substrate and [gamma33P]-ATP after 15 mins by scintillation counting.
Experiment [8] addresses T4, Cyclin-dependent kinase 1. The description is as §4. The source holds these as a separate data set.

T1 sequence (P49841 whole entry): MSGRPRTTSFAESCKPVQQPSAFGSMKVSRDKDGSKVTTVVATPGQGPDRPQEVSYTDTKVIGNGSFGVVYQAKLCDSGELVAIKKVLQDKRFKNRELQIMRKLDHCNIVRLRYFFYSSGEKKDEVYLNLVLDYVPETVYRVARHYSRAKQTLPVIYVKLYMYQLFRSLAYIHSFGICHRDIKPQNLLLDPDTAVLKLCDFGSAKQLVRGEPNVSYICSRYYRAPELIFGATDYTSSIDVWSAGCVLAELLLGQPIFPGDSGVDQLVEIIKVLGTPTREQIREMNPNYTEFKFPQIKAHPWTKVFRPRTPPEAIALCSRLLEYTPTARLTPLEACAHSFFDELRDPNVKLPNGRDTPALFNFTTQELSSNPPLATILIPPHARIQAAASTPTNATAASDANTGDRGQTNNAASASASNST
T3 sequence (P49840 whole entry): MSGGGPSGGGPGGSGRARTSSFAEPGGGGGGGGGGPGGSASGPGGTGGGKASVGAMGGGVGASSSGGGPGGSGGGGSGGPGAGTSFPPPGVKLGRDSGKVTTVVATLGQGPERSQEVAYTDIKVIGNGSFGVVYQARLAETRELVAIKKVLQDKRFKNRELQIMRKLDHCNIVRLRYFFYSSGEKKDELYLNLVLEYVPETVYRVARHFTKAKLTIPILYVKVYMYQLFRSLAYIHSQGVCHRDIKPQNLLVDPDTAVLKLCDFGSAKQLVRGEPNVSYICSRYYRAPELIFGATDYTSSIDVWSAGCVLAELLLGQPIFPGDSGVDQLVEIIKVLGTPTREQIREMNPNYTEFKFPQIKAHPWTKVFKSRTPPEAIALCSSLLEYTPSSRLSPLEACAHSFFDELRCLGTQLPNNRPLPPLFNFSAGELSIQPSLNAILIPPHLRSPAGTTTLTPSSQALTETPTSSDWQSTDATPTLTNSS
T2 sequence (Q00535 whole entry): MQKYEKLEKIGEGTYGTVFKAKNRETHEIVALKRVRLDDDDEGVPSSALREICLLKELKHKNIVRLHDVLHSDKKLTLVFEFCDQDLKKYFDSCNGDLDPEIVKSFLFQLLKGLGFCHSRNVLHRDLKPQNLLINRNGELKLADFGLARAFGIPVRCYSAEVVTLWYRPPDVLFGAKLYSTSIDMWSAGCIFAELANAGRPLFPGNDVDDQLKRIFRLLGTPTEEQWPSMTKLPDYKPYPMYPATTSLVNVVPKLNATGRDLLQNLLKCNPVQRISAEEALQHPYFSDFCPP
T4 sequence (P06493 whole entry): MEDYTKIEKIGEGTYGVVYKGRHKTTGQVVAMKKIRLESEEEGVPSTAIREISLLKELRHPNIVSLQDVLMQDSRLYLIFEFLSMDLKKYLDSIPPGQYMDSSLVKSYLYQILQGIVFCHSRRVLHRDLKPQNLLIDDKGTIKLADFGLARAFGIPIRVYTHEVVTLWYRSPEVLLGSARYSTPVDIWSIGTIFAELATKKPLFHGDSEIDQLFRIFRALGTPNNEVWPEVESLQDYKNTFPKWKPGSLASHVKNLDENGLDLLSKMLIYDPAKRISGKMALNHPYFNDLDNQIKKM

A word on the IC50: it is the concentration needed to halve the response being measured. For the molecule `CCCCCCCC(=O)OC[C@H](O)[C@H]1OC(=O)C(O)C1=O` (some centres not stated), the IC50 in experiment [1] and in experiment [2] was > 50 µM throughout.
Take `C/C(=C/CC[C@@H](C)C=C1OC(=O)C(C)C1=O)CCCc1coc(Cc2ccoc2)c1` (some centres not stated) [Ircinin 2]: the half-maximal inhibitory concentration (IC50) in experiment [1] and in experiment [2] was 2.34 µM throughout.
With `C/C(=C\C=C\C(C)CC/C=C(\C)C[C@H]1OC(=O)C(C)C1=O)CCCc1ccoc1` (some centres not stated) [PALINURIN], the IC50 in experiment [1] was 1.91 µM; in experiment [3], < 25.1 µM; in experiment [4], < 25.1 µM; in experiment [5], 1.62 µM; in experiment [6], 1.62 µM; in experiment [2], 1.91 µM. The IC50 in experiment [7] and in experiment [8] was < 100 µM in each case.

These data come from BindingDB's records for doi:10.1016/j.ejmech.2012.12.014 (Universitat De Barcelona, 2013).
